Data: the supplement of paper PMC11451515

How the values were obtained:
Settings in all cases: 48 h
SEM cells [1] = test: cell viability relative to DMSO control; higher = less cytotoxic
How it was run: (§1)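 Viability values are per-plate percentages of DMSO wells, with background from cell-free wells. Library compounds in DMSO were pin-dosed, in an 11-point threefold series from 47 μM to 0.79 nM, onto NOMO1 or SEM (500 cells/well) or P12-Ichikawa (1000 cells/well) leukemia cells in 1536-well plates (5 μl). Those cells had been adapted for at least four passages in each medium, and CellTiter-Glo One luminescence was read after 48 h at 37°C.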

P12-Ichikawa [2] = test: as above
How it was run: as §1

NOMO1 [3] = test: as above
How it was run: as §1

SEM cells [4] = test: AUC of viability dose-response curve (% viability x log10 dose units); higher = less sensitive
How it was run: (§2)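 Leukemia cells adapted to each medium (500 or 1000 cells/well, 1536-well plates) were exposed to library compounds in DMSO for 48 h at 37°C at 11 threefold doses, 47 μM to 0.79 nM. Luminescence by CellTiter-Glo One was normalised per plate to DMSO and cell-free wells, then fitted with a four-parameter log-logistic curve on log10 dose. Curves above full viability were scaled and quality-control failures removed before area under the curve was integrated by trapezoidal rule.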

P12-Ichikawa [5] = test: as above
How it was run: as §2

NOMO1 [6] = test: as above
How it was run: as §2

OC1=CC2=C(C(=C1)O)C(=O)\C(=C(/O2)C3=CC(=C(O)C=C3)O)O
cell viability [%]
Settings	NOMO1 [3]	P12-Ichikawa [2]	SEM cells [1]
HPLM + 10% dialyzed FBS, 0.000781 µM	97.5	98.8	89.1
HPLM + 10% dialyzed FBS, 0.00234 µM	104	99.2	84.2
HPLM + 10% dialyzed FBS, 0.00702 µM	102	108	93.4
HPLM + 10% dialyzed FBS, 0.0211 µM	112	113	99.4
HPLM + 10% dialyzed FBS, 0.0632 µM	125	112	98.2
HPLM + 10% dialyzed FBS, 0.19 µM	117	111	94.4
HPLM + 10% dialyzed FBS, 0.569 µM	116	107	97.4
HPLM + 10% dialyzed FBS, 1.71 µM	99.7	110	110
HPLM + 10% dialyzed FBS, 5.12 µM	118	116	111
HPLM + 10% dialyzed FBS, 15.4 µM	110	102	94.8
HPLM + 10% dialyzed FBS, 46.1 µM	109	79.3	75.1
RPMI 5 mM glucose + 10% FBS, 0.000781 µM	98.1	93.8	79.7
RPMI 5 mM glucose + 10% FBS, 0.00234 µM	105	107	97.7
RPMI 5 mM glucose + 10% FBS, 0.00702 µM	115	103	106
RPMI 5 mM glucose + 10% FBS, 0.0211 µM	90.8	103	96.1
RPMI 5 mM glucose + 10% FBS, 0.0632 µM	110	109	99.6
RPMI 5 mM glucose + 10% FBS, 0.19 µM	108	105	109
RPMI 5 mM glucose + 10% FBS, 0.569 µM	106	110	106
RPMI 5 mM glucose + 10% FBS, 1.71 µM	110	101	105
RPMI 5 mM glucose + 10% FBS, 5.12 µM	95.4	107	108
RPMI 5 mM glucose + 10% FBS, 15.4 µM	90.5	101	102
RPMI 5 mM glucose + 10% FBS, 46.1 µM	97.9	85.9	71.5
RPMI 5 mM glucose + 10% dialyzed FBS, 0.000781 µM	98.2	107	83.6
RPMI 5 mM glucose + 10% dialyzed FBS, 0.00234 µM	98	108	85.2
RPMI 5 mM glucose + 10% dialyzed FBS, 0.00702 µM	109	113	92.1
RPMI 5 mM glucose + 10% dialyzed FBS, 0.0211 µM	107	103	88.3
RPMI 5 mM glucose + 10% dialyzed FBS, 0.0632 µM	104	117	111
RPMI 5 mM glucose + 10% dialyzed FBS, 0.19 µM	118	100	104
RPMI 5 mM glucose + 10% dialyzed FBS, 0.569 µM	110	117	115
RPMI 5 mM glucose + 10% dialyzed FBS, 1.71 µM	104	108	101
RPMI 5 mM glucose + 10% dialyzed FBS, 5.12 µM	107	118	92.6
RPMI 5 mM glucose + 10% dialyzed FBS, 15.4 µM	106	109	104
RPMI 5 mM glucose + 10% dialyzed FBS, 46.1 µM	102	73.2	69.8

AUC of viability dose-response curve
Settings	NOMO1 [6]	P12-Ichikawa [5]	SEM cells [4]
HPLM + 10% dialyzed FBS	459	469	454
RPMI 5 mM glucose + 10% FBS	465	471	470
RPMI 5 mM glucose + 10% dialyzed FBS	469	469	454

C[S+](=O)([O-])c1ccc(Oc2cc(F)cc(C#N)c2)c2c1[C@H](O)C(F)(F)C2
cell viability [%]
Settings	NOMO1 [3]	P12-Ichikawa [2]	SEM cells [1]
HPLM + 10% dialyzed FBS, 0.000781 µM	96.5	92.8	73.5
HPLM + 10% dialyzed FBS, 0.00234 µM	123	96.9	97.9
HPLM + 10% dialyzed FBS, 0.00702 µM	123	102	101
HPLM + 10% dialyzed FBS, 0.0211 µM	112	100	101
HPLM + 10% dialyzed FBS, 0.0632 µM	119	102	108
HPLM + 10% dialyzed FBS, 0.19 µM	119	107	105
HPLM + 10% dialyzed FBS, 0.569 µM	139	103	103
HPLM + 10% dialyzed FBS, 1.71 µM	126	104	106
HPLM + 10% dialyzed FBS, 5.12 µM	112	110	111
HPLM + 10% dialyzed FBS, 15.4 µM	120	109	106
HPLM + 10% dialyzed FBS, 46.1 µM	121	96.3	87.7
RPMI 5 mM glucose + 10% FBS, 0.000781 µM	92.7	91.5	93.8
RPMI 5 mM glucose + 10% FBS, 0.00234 µM	111	100	117
RPMI 5 mM glucose + 10% FBS, 0.00702 µM	101	103	152
RPMI 5 mM glucose + 10% FBS, 0.0211 µM	103	117	140
RPMI 5 mM glucose + 10% FBS, 0.0632 µM	119	108	138
RPMI 5 mM glucose + 10% FBS, 0.19 µM	117	107	155
RPMI 5 mM glucose + 10% FBS, 0.569 µM	101	112	144
RPMI 5 mM glucose + 10% FBS, 1.71 µM	112	105	156
RPMI 5 mM glucose + 10% FBS, 5.12 µM	124	105	141
RPMI 5 mM glucose + 10% FBS, 15.4 µM	108	106	158
RPMI 5 mM glucose + 10% FBS, 46.1 µM	114	97.8	124
RPMI 5 mM glucose + 10% dialyzed FBS, 0.000781 µM	97.4	92.6	76.9
RPMI 5 mM glucose + 10% dialyzed FBS, 0.00234 µM	102	105	112
RPMI 5 mM glucose + 10% dialyzed FBS, 0.00702 µM	103	108	121
RPMI 5 mM glucose + 10% dialyzed FBS, 0.0211 µM	109	110	105
RPMI 5 mM glucose + 10% dialyzed FBS, 0.0632 µM	111	115	124
RPMI 5 mM glucose + 10% dialyzed FBS, 0.19 µM	127	110	121
RPMI 5 mM glucose + 10% dialyzed FBS, 0.569 µM	123	104	106
RPMI 5 mM glucose + 10% dialyzed FBS, 1.71 µM	125	110	128
RPMI 5 mM glucose + 10% dialyzed FBS, 5.12 µM	117	110	106
RPMI 5 mM glucose + 10% dialyzed FBS, 15.4 µM	125	104	120
RPMI 5 mM glucose + 10% dialyzed FBS, 46.1 µM	114	106	84.9

AUC of viability dose-response curve
Settings	NOMO1 [6]	P12-Ichikawa [5]	SEM cells [4]
HPLM + 10% dialyzed FBS	455	467	467
RPMI 5 mM glucose + 10% FBS	462	469	459
RPMI 5 mM glucose + 10% dialyzed FBS	448	472	467

C1CCN2C[C@H]3C[C@H](\C=C/4CCCN[C@@H]34)[C@H]2C1
cell viability [%]
Settings	NOMO1 [3]	P12-Ichikawa [2]	SEM cells [1]
HPLM + 10% dialyzed FBS, 0.000781 µM	96.5	105	91.7
HPLM + 10% dialyzed FBS, 0.00234 µM	113	108	108
HPLM + 10% dialyzed FBS, 0.00702 µM	113	99.3	105
HPLM + 10% dialyzed FBS, 0.0211 µM	133	103	107
HPLM + 10% dialyzed FBS, 0.0632 µM	96.1	104	115
HPLM + 10% dialyzed FBS, 0.19 µM	122	110	115
HPLM + 10% dialyzed FBS, 0.569 µM	137	110	113
HPLM + 10% dialyzed FBS, 1.71 µM	107	115	108
HPLM + 10% dialyzed FBS, 5.12 µM	115	111	101
HPLM + 10% dialyzed FBS, 15.4 µM	99.5	108	123
HPLM + 10% dialyzed FBS, 46.1 µM	92.8	11.1	112
RPMI 5 mM glucose + 10% FBS, 0.000781 µM	105	110	95.2
RPMI 5 mM glucose + 10% FBS, 0.00234 µM	105	115	105
RPMI 5 mM glucose + 10% FBS, 0.00702 µM	108	121	89.2
RPMI 5 mM glucose + 10% FBS, 0.0211 µM	104	127	118
RPMI 5 mM glucose + 10% FBS, 0.0632 µM	98.7	117	103
RPMI 5 mM glucose + 10% FBS, 0.19 µM	108	123	110
RPMI 5 mM glucose + 10% FBS, 0.569 µM	104	122	102
RPMI 5 mM glucose + 10% FBS, 1.71 µM	105	116	96
RPMI 5 mM glucose + 10% FBS, 5.12 µM	108	115	95.7
RPMI 5 mM glucose + 10% FBS, 15.4 µM	63.7	134	118
RPMI 5 mM glucose + 10% FBS, 46.1 µM	55	20.8	120
RPMI 5 mM glucose + 10% dialyzed FBS, 0.000781 µM	107	113	99.6
RPMI 5 mM glucose + 10% dialyzed FBS, 0.00234 µM	108	104	102
RPMI 5 mM glucose + 10% dialyzed FBS, 0.00702 µM	114	101	109
RPMI 5 mM glucose + 10% dialyzed FBS, 0.0211 µM	121	112	127
RPMI 5 mM glucose + 10% dialyzed FBS, 0.0632 µM	108	112	103
RPMI 5 mM glucose + 10% dialyzed FBS, 0.19 µM	108	109	117
RPMI 5 mM glucose + 10% dialyzed FBS, 0.569 µM	120	108	103
RPMI 5 mM glucose + 10% dialyzed FBS, 1.71 µM	111	97.6	104
RPMI 5 mM glucose + 10% dialyzed FBS, 5.12 µM	120	112	95.8
RPMI 5 mM glucose + 10% dialyzed FBS, 15.4 µM	78.6	108	122
RPMI 5 mM glucose + 10% dialyzed FBS, 46.1 µM	64.2	19.2	122

AUC of viability dose-response curve
Settings	NOMO1 [6]	P12-Ichikawa [5]	SEM cells [4]
HPLM + 10% dialyzed FBS	462	456	465
RPMI 5 mM glucose + 10% FBS	447	457	449
RPMI 5 mM glucose + 10% dialyzed FBS	452	457	457
